Laboratory results: patent US20080261309A1, “IN VITRO MULTIPLICATION OF HOODIA PLANTS” (CONOPCO, INC., D/B/A/ UNILEVER, priority 2007, published 2008)
“And” between values parts separate entries of the source, which are not always exact repeats. Identical values can stand only once.

Experiments:
[1] = system: Hoodia explants; experiment: Effect of gibberellic acid concentrations on shoot elongation and proliferation; type: cell-based, Hoodia gordonii; settings: for Number of new shoots: replicates 1-7
Protocol: This Example investigated the effect of various giberellic acid concentrations on shoot elongation and proliferation.
An average of four shoots per explant was observed when the GA3 concentration was increased from 2.89 μM to 5.78 μM with 17.74 μM of BAP and 5.71 μM of IAA. As the concentration increased, the shoot length was retarded but side shoots were formed.

[2] = system: Hoodia explants; experiment: Effect of BAP and IAA concentrations and combinations on shoot multiplication; type: cell-based, Hoodia gordonii
Protocol: In all the multiplication and later rooting trials, the experiments were carried out in a randomised factorial design with at least four replicates per treatment. The student's t-test was used to determine significant difference between the phytohormone treatments. P values≦0.05 was considered significant.
This example tested the effect of different benzylaminopurine (BAP, cytokinin), indoleacetic acid (IAA, auxin) concentration and combinations on shoot multiplication.
The basal salt medium used for this experiment was M&S basal salt and vitamins. All the other components were the same as used for initiation medium in Example 1. […] Factorial experiments were designed to test the effect of these phytohormones on shoot multiplication.
Each treatment had four replicates. Results were obtained after two sub-cultures.

[3] = system: H. gordonii shoot tips; experiment: Sterilisation of shoot tips: clean plants free of visible bacteria or fungal growth; set-up: species or system Hoodia gordonii
Protocol: Example 1 investigated the effect of various sterilization protocols on the number of clean shoots and their ability to produce new shoots after sterilization.
A total of 211 shoot tips (5-6 cm) of fresh H. gordonii plant material were collected from cultivation sites.
The shoot tips were washed thoroughly for 3-5 minutes under running tap water and liquid detergent to remove any debris from the field. The spikes on some of the plants were carefully removed with a surgical blade before the sterilisation process. […] Each tub contained around 10 shoot tips placed in 300 ml of the sterilizing solution. The tubs were placed on a shaker at low speed 80 rpm for 5 minutes. After 5 minutes, the mercuric chloride was poured out and the plants were rinsed once in sterile distilled water. After rinsing with sterile distilled water, a second sterilisation process with 30% sodium hypochlorite solution was carried out. The tubs were placed on a shaker at a speed of 80 rpm for 30 or 40 minutes. A total of 188 shoots were sterilized for 30 minutes while […] shoots were sterilized for 40 minutes. After draining the sodium hypochlorite, a batch of the plants were rinsed in distilled sterile water before putting in the initiation medium white another batch was placed directly into the initiation medium without rinsing. Recording of the percentage clean plants was done two weeks after initiation. Clean plants were shoots that were free of visible bacteria or fungal growth.
After sterilisation, the shoot tips were cultured on Murashige and Skoog (M&S) basal salt medium with M&S vitamins supplemented with 30 g/l sucrose, 3 g/l gelrite, 25 mg/l cefotaxime. The phytohormones used for the initiation medium were 17.74 μM Benzylaminopurine (BAP) and 5.71 μM Indole acetic acid (IAA). The pH of all the media tested was adjusted to 5.8 with either 1M potassium hydroxide (KOH) or 1N hydrochloric acid (HCl) before autoclaving at 121° C. for 20 minutes. Each 250 ml bottle contained one shoot tip. All the cultures were incubated at 26±2° C. in a growth room with a 16/8 hour light/dark photoperiod (39-90 μE/m^2/s). New shoot growth normally started a week after sterilisation. After two weeks in culture, bottles that were visibly clean were counted.

[4] = system: Hoodia shoots; experiment: Effect of sucrose concentration on new shoot formation; type: cell-based, Hoodia gordonii; settings: lowering sucrose from 30 g/l to 20 g/l in the multiplication medium
Source text: Example 6 tested the effect of three sucrose concentrations 0, 20 and 30 g/l on new shoot formation. All the other supplements were the same as for the initiation medium in Example 1. M&S basal salt and vitamin was used as the basal medium.
The sucrose concentrations used for the multiplication experiments were 0, 20 and 30 g/l respectively. There was no multiplication on plants placed in the control (0 g/l) medium which had no sugar. The shoots were stunted and started to turn to yellow after three weeks in culture.

## C=C1C[C@]23C[C@@]1(O)CC[C@H]2[C@@]12C=C[C@H](O)[C@@](C)(C(=O)O1)[C@H]2[C@@H]3C(=O)O [GA3, gibberellic acid]
[1]; GA3 1.44 μM
  Number of new shoots: 1 (3×) and 2 (2×) and 0 (2×)
[1]; GA3 2.89 μM and 5.77 μM
  Shoot elongation and multiplication: elongated and multiplied better
[1]; GA3 2.89 μM
  Number of new shoots: 3 (3×) and 2 (2×) and 4 (2×)
[1]; GA3 5.77 μM
  Increase in length of the initial explant: ~1 cm
  Number of new shoots: 4 (2×) and 5 (2×) and 6 and 7 and 8
[1]; GA3 increased from 2.89 μM to 5.78 μM with 17.74 μM BAP and 5.71 μM IAA
  Average shoots per explant: four

## c1ccc(CNc2ncnc3[nH]cnc23)cc1 [BAP, benzylaminopurine]
[2]; BAP 17.74 μM with IAA 5.71 μM
  Average shoots per explant: 4
[2]; BAP 17.74 μM with IAA 5.71 μM, compared to BAP 22.19 μM
  Callus growth: less callus growth
[2]; BAP 22.19 μM and IAA 5.71 μM
  Average side shoots per explant: four
[2]; BAP concentrations higher than 44.38 μM
  Auxiliary shoots production: retarded

## OCl [sodium hypochlorite]
[3]; 30 minute treatment
  Appearance of shoot tips after sterilisation: still green
[3]; 30 minutes of sterilisation, out of 188 plants
  Number of clean plants: 170 plants out of 188
[3]; 40 minute treatment
  Appearance of shoot tips after sterilisation: heavily bleached on the external tissue
[3]; 40 minutes of sterilisation, out of 44 total
  Number of clean plants: 41 plants out of 44
[3]; 40 minutes versus 30 minutes bleach treatment, in favour of 30 minutes
  Difference in time taken for shoots to emerge: about one
[3]; sterilizing only with sodium hypochlorite (no mercuric chloride), field grown cultures
  Contamination rate: 80%

## OC[C@H]1O[C@@](CO)(O[C@H]2O[C@H](CO)[C@@H](O)[C@H](O)[C@H]2O)[C@@H](O)[C@@H]1O [sucrose]
[4]
  Effect on shoot development and multiplication: no significant effect
